# Where two headings read alike, the source gives them in different places.
# Experiments:
# [1] = target: T1, OCT2 (Homo sapiens, UniProt O15244); experiment: Inhibition of model substrate uptake in OCT2-overexpressing HEK293 cells; conditions: for inhibition at 5 min, 20 μM: human, OCT2-overexpressing HEK293 cells; for inhibition at 5 min, 20 μM / (S,S)-Ethambutol inhibition [%] / ASP+ inhibition [%] / N-Ethyllidocaine inhibition [%]: OCT2, 20 μM inhibitor, 5 min
# T1 sequence (O15244 1-555): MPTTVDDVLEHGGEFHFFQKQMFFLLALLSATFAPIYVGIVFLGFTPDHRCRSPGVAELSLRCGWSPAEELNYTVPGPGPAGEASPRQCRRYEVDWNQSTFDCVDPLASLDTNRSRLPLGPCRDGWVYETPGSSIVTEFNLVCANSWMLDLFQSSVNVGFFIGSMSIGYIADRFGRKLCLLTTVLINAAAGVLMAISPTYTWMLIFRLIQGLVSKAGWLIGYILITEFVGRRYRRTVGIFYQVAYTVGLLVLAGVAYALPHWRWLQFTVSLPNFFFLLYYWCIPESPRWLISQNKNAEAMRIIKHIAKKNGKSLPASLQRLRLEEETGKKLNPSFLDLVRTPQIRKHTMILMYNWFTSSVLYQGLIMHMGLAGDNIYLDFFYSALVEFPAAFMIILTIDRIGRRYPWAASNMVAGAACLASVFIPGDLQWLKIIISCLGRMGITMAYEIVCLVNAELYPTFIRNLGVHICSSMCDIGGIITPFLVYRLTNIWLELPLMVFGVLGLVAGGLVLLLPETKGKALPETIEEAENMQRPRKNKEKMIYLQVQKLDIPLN
# [2] = target: T2, OCT1 (Homo sapiens, UniProt O15245); experiment: Inhibition of model substrate uptake in OCT1-overexpressing HEK293 cells; format: cell-based; set-up: expressed in transfected cells; host or cells: HEK293; conditions: OCT1, 20 μM inhibitor, 5 min; for inhibition at 5 min, 20 μM: human, OCT1-overexpressing HEK293 cells
# T2 sequence (O15245 1-554): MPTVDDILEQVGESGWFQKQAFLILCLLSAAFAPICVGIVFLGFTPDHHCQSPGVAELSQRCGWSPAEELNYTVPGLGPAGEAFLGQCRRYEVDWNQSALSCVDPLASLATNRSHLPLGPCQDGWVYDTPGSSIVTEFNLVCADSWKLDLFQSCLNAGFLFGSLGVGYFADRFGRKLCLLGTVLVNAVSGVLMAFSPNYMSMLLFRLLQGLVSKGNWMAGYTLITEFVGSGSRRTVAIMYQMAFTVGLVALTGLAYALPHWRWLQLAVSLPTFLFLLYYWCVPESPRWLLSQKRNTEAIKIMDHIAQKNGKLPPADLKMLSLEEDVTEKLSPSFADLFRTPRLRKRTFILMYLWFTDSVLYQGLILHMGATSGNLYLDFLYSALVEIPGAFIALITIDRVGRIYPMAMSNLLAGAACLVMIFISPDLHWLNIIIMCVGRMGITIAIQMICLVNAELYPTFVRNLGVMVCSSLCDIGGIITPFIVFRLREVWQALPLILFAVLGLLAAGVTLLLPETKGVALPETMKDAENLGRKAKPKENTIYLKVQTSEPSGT
# Experimental: Koepsell and Gorbulev (University of Würzburg, Germany).
# Fluorescence quantification was performed in technical duplicates.
# [3] = target: T3, OCT3 (Homo sapiens, UniProt O75751); experiment: Inhibition of model substrate uptake in OCT3-overexpressing HEK293 cells; format: cell-based; conditions: for IC50: read-out: IC50
# T3 construct: expressed in transfected cells; host or cells: HEK293
# T3 sequence (O75751 1-556): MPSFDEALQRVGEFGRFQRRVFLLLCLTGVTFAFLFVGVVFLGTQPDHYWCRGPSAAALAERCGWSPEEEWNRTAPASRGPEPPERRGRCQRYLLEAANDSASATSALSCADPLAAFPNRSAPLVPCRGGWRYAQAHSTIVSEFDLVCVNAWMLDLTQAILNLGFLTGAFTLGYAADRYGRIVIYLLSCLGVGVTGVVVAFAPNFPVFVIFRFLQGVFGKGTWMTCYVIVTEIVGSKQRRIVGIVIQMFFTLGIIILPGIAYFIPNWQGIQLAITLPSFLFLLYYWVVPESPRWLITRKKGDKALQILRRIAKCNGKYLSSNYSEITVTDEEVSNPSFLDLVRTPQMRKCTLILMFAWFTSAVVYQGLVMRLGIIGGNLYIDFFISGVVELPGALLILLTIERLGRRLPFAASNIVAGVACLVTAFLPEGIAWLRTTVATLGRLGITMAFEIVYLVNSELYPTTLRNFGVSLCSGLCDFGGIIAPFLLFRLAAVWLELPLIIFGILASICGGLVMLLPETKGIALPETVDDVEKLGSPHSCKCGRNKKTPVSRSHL
# Method in brief: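 IC50 values were fitted with a Hill equation from net uptake, calculated as uptake in overexpressing HEK293 cells minus empty-vector control uptake. Cells were exposed for 5 min to 2 μM model substrate alone, with 20 μM inhibitor, or with a concentration series. Uptake was quantified by ASP^+ fluorescence or LC–MS/MS after lysis in 80% acetonitrile.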
# [4] = pH 7.4, probe (S,S)-ethambutol (2 μM), (S,S)-Ethambutol inhibition [%], 2 μM (S,S)-ethambutol
# [5] = pH 7.4, probe ASP+ (2 μM), ASP+ inhibition [%], 2 μM ASP+
# [6] = pH 7.4, probe N-ethyllidocaine (2 μM), N-Ethyllidocaine inhibition [%], 2 μM N-ethyllidocaine
# [7] = pH 7.4, probe ASP+ (2 μM), 2 μM ASP+, mean of three experiments, read-out: ASP+ inhibition [%]
# [8] = pH 7.4, probe sumatriptan (2 μM), 2 μM sumatriptan, read-out: Sumatriptan inhibition [%]
# [9] = HEK293, 5 min, read-out: (S)-Zolmitriptan inhibition [%], OCT3, 20 μM inhibitor, 2 μM (S)-zolmitriptan, 5 min
# [10] = HEK293, 5 min, read-out: (S,S)-Ethambutol inhibition [%], OCT3, 20 μM inhibitor, 2 μM (S,S)-ethambutol, 5 min
# [11] = HEK293, OCT3, 20 μM inhibitor, 2 μM ASP+, 5 min, read-out: ASP+ inhibition [%]
# [12] = 2 μM ASP+, mean of three experiments
"inhibition at 5 min, 20 μM [1, 4] [%]","inhibition at 5 min, 20 μM [1, 5] [%]","inhibition at 5 min, 20 μM [1, 6] [%]","inhibition at 5 min, 20 μM [2, 4] [%]","inhibition at 5 min, 20 μM [2, 7] [%]","inhibition at 5 min, 20 μM [2, 8] [%]","inhibition at 20 µM [3, 9] [%]","inhibition at 20 µM [3, 10] [%]","inhibition at 20 µM [3, 11] [%]",Compound,"(S,S)-Ethambutol inhibition [%] ([1]; 2 μM (S,S)-ethambutol)",ASP+ inhibition [%] ([1]; 2 μM ASP+),N-Ethyllidocaine inhibition [%] ([1]; 2 μM N-ethyllidocaine),"(S,S)-Ethambutol inhibition [%] ([2]; 2 μM (S,S)-ethambutol)","ASP+ inhibition [%] [2, 12] [%]",Sumatriptan inhibition [%] ([2]; 2 μM sumatriptan),other results
5.5,5.4,-2.7,6.2,5.2,-5.1,-3.9,5.6,2.7,CNC[C@@H](O)c1cccc(O)c1 [(S)-Phenylephrine],–,–,–,–,–,–,–
58.7,52.9,51.3,78,40.1,84.3,30,11.8,-6.6,Cc1cccc(C)c1OC[C@H](C)N [(S)-Mexiletine],–,–,–,–,–,–,–
–,–,–,–,–,–,–,–,–,CC(C)NC[C@H](O)COc1cccc2ccccc12 [(S)-Propranolol],28.4,57.3,32.4,74.3,40.6,82.8,"IC50 ([3]; OCT3, Table 1): 69 µM; (S)-Zolmitriptan inhibition [%] ([3]; OCT3, 20 μM inhibitor, 2 μM (S)-zolmitriptan, 5 min): 38.2%; (S,S)-Ethambutol inhibition [%] ([3]; OCT3, 20 μM inhibitor, 2 μM (S,S)-ethambutol, 5 min): 32.0%; ASP+ inhibition [%] ([3]; OCT3, 20 μM inhibitor, 2 μM ASP+, 5 min): -2.9%"
–,–,–,–,–,–,–,–,–,CNCC[C@H](Oc1ccc(C(F)(F)F)cc1)c1ccccc1 [(S)-Fluoxetine],6.4,56.6,28.7,78.6,47.7,82.3,"(S)-Zolmitriptan inhibition [%] [3]: 13.8; (S,S)-Ethambutol inhibition [%] [3]: 12.3; ASP+ inhibition [%] [3]: -3.1"
13.4,76.9,33.7,54.8,15.5,38.2,32.1,46.2,10.3,C=C[C@H]1C[N@@]2CC[C@H]1C[C@H]2[C@H](O)c1ccnc2ccc(OC)cc12 [Quinine],–,–,–,–,–,–,"IC50 ([3]; OCT3, Table S5, 2 μM ASP+ or ethambutol as model substrate, 5 min): 78.9 µM"

Compound,"inhibition at 5 min, 20 μM [1, 4] [%]","inhibition at 5 min, 20 μM [1, 5] [%]","inhibition at 5 min, 20 μM [1, 6] [%]","inhibition at 5 min, 20 μM [2, 4] [%]","inhibition at 5 min, 20 μM [2, 7] [%]","inhibition at 5 min, 20 μM [2, 8] [%]","inhibition at 20 µM [3, 9] [%]","inhibition at 20 µM [3, 10] [%]","inhibition at 20 µM [3, 11] [%]","(S,S)-Ethambutol inhibition [%] ([1]; 2 μM (S,S)-ethambutol)",ASP+ inhibition [%] ([1]; 2 μM ASP+),N-Ethyllidocaine inhibition [%] ([1]; 2 μM N-ethyllidocaine),"(S,S)-Ethambutol inhibition [%] ([2]; 2 μM (S,S)-ethambutol)","ASP+ inhibition [%] [2, 12] [%]",Sumatriptan inhibition [%] ([2]; 2 μM sumatriptan),other results
CNCC[C@H](Oc1cccc2ccccc12)c1cccs1 [(S)-Duloxetine],19.4,70.2,46.1,86.9,43.3,88.5,–,–,–,–,–,–,–,–,–,"IC50 ([1]; IC50): 16.6 µM; inhibition at 20 µM ([3]; HEK293, 5 min, read-out: (S)-Zolmitriptan inhibition [%]): 19.6%; inhibition at 20 µM ([3]; HEK293, 5 min, read-out: (S,S)-Ethambutol inhibition [%]): 25.2%; inhibition at 20 µM ([3]; HEK293, read-out: ASP+ inhibition [%]): 2.4%"

# Reference: PMC10698726 (Molecular Pharmaceutics, 2023)
